Experimental data from patent publication US11529358B2, “Treatment of conditions associated with myotonic dystrophy” (priority 2017, dated 2022).
Entries after “also recorded” stand apart in the source; their conditions may differ.

How the values were obtained:
gamma 2L deficient mice = conditions: Quinlan et al. 2000; cited from earlier work
DM subject [1] = experiment: Epworth Sleepiness Scale, self-reported
DM subject 1 [2] = experiment: Stanford sleepiness scale; conditions: intravenous flumazenil, 2 different doses incl. 2.0 mg, average of 3 assessments over one hour
[3] = system: idiopathic hypersomnia (IH) subjects; conditions: previous work, Rye 2012; Trotti 2016; cited from earlier work
[4] = system: benzodiazepine binding site of GABAA receptors; conditions: previous work, Rye et al. 2012; cited from earlier work
DM subject 1 [5] = experiment: Ten-minute psychomotor vigilance task
[6] = system: MBNL2 knockout and DMSXL transgenic mouse models; conditions: MBNL2 knockout and DMSXL transgenic mice; Charizanis et al. 2012; cited from earlier work
[7] = molecular target: GABRG2S-containing receptors in HEK293T cells (Homo sapiens, UniProt P14867+P18507); experiment: Patch clamp electrophysiology with DM subject CSF in HEK293T cells; conditions: CSF from DM subject 2, with GABA; clarithromycin added
DM subject [8] = experiment: Clinical treatment of hypersomnia and cognitive deficits in DM subjects; type: in vivo, human
DM subject [9] = experiment: Sleep inertia questionnaire, self-reported; type: in vivo, human; conditions: additional DM subject; ON treatment: flumazenil 12-18 mg sublingual plus 12 mg topical daily, or armodafinil 250 mg QAM
DM subject [10] = experiment: Functional Outcomes of sleep, self-reported; type: in vivo, human; conditions: additional DM subject; ON treatment: flumazenil 12-18 mg sublingual plus 12 mg topical daily, or armodafinil 250 mg QAM
DM subject [11] = experiment: Owl Lark questionnaire, self-reported; type: in vivo, human; conditions: additional DM subject; ON treatment: flumazenil 12-18 mg sublingual plus 12 mg topical daily, or armodafinil 250 mg QAM
DM subject [12] = experiment: Hypersomnia Severity Index, self-reported; type: in vivo, human; conditions: additional DM subject; ON treatment: flumazenil 12-18 mg sublingual plus 12 mg topical daily, or armodafinil 250 mg QAM
DM subject [13] = experiment: Beck Depression Inventory, self-reported; type: in vivo, human; conditions: additional DM subject; ON treatment: flumazenil 12-18 mg sublingual plus 12 mg topical daily, or armodafinil 250 mg QAM
DM subject [14] = experiment: Multidimensional Fatigue Inventory, self-reported; type: in vivo, human; conditions: additional DM subject; ON treatment: flumazenil 12-18 mg sublingual plus 12 mg topical daily, or armodafinil 250 mg QAM
DM subject [15] = experiment: Fatigue severity scale, self-reported; type: in vivo, human; conditions: additional DM subject; ON treatment: flumazenil 12-18 mg sublingual plus 12 mg topical daily, or armodafinil 250 mg QAM
[16] = additional DM subject, ON treatment: flumazenil 12-18 mg sublingual plus 12 mg topical daily, or armodafinil 250 mg QAM

GABRG2S-containing receptors in HEK293T cells, sequence (P18507 40-467 isoform P18507-1 limits assumed): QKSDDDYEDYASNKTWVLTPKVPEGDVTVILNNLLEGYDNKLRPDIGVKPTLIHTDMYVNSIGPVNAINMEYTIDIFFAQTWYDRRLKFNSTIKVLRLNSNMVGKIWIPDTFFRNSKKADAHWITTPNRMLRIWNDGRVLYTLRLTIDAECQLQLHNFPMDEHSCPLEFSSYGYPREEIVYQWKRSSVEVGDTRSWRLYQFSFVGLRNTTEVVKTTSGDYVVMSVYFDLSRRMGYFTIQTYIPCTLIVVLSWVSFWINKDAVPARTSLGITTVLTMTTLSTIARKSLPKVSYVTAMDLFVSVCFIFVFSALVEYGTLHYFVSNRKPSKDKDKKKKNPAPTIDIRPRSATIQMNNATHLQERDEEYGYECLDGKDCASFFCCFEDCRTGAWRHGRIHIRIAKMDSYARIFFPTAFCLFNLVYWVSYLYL
GABRG2S-containing receptors in HEK293T cells, sequence (P14867 28-456): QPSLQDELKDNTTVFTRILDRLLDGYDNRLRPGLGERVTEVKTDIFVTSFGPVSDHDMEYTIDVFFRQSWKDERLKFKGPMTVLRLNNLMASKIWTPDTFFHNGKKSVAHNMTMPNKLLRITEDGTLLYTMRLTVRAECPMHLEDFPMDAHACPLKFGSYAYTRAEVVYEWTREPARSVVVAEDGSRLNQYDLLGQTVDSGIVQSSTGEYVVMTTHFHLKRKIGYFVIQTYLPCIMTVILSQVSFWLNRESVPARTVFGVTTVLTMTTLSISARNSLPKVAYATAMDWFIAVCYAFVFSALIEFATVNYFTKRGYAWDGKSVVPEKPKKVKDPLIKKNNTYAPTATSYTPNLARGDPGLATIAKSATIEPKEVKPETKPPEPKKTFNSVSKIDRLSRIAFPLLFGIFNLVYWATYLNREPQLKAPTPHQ
GABRG2S-containing receptors in HEK293T cells, sequence (P47870 25-512 partner limits assumed): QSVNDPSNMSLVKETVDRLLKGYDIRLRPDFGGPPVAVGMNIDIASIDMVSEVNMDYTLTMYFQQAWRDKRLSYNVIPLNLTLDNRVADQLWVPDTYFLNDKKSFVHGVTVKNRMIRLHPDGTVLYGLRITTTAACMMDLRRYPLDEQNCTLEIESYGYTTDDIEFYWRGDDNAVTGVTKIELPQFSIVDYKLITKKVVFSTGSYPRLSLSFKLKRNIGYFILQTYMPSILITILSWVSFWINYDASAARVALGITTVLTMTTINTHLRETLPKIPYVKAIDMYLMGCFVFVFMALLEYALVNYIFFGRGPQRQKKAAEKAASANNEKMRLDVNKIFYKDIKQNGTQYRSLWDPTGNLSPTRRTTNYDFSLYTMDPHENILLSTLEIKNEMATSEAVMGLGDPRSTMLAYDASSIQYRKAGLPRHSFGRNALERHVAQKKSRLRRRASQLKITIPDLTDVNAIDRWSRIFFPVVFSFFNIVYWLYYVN

SMILES: CCOC(=O)c1ncn2c1CN(C)C(=O)c1cc(F)ccc1-2 [flumazenil]
- action of midazolam in gamma 2L deficient mice (gamma 2L deficient mice): reversed
- Epworth Sleepiness Scale (DM subject [1]; DM subject 4, ON flumazenil 12-18 mg sublingual plus 12 mg topical daily, 6 continuous weeks): 5
- Epworth Sleepiness Scale (DM subject [1]; [16]): 7
- self reported sleepiness on the Stanford sleepiness scale (DM subject 1 [2]): reduced sleepiness
- clinical benefit in idiopathic hypersomnia [3]: clinical benefit
- endozepine-like molecule binding [4]: inhibits endozepine-like molecule binding
- time elapsed between visual stimulus and user input (DM subject 1 [5]; 2.0 mg intravenously administered flumazenil, versus before treatment): dramatic decrease in time elapsed
- lapses in attention (reaction times >500 ms) (DM subject 1 [5]; intravenous flumazenil, 2 different doses incl. 2.0 mg): marked reduction in lapses in attention; also recorded: decreased

SMILES: C1CCc2nnnn2CC1 [Pentylenetetrazole]
- spontaneous seizure and death in response to PTZ [6]: increased frequency of spontaneous seizure and death

SMILES: CC[C@H]1OC(=O)[C@H](C)[C@@H](O[C@H]2C[C@@](C)(OC)[C@@H](O)[C@H](C)O2)[C@H](C)[C@@H](O[C@@H]2O[C@H](C)C[C@H](N(C)C)[C@H]2O)[C@](C)(OC)C[C@@H](C)C(=O)[C@H](C)[C@@H](O)[C@]1(C)O [clarithromycin]
- effect on endozepine-like activity of CSF [7]: reversed; also recorded: normalized
- Oral clarithromycin treatment outcome (DM subject [8]; DM subject 1): discontinued use -
- Oral clarithromycin treatment outcome (DM subject [8]; DM subject 2): clinical benefit; also recorded: efficacious

SMILES: NC(=O)C[S@@+]([O-])C(c1ccccc1)c1ccccc1 [Armodafmil, armodafinil]
- Sleep inertia questionnaire (DM subject [9]): 14.683
- Functional Outcomes of sleep (5-20) (DM subject [10]): 16.875
- Owl Lark (DM subject [11]): 36
- Hypersomnia Severity Index (0-36) (DM subject [12]): 25
- Epworth Sleepiness Scale (DM subject [1]; [16]): 8
- Beck Depression Inventory (0-39) (DM subject [13]): 3
- General Fatigue (5-20) (DM subject [14]): 15
- Mental Fatigue (5-20) (DM subject [14]): 11
- Physical Fatigue (5-20) (DM subject [14]): 6
- Reduced Activity (5-20) (DM subject [14]): 7
- Reduced Motivation (5-20) (DM subject [14]): 5
- Fatigue severity scale (7-63) (DM subject [15]): 47
